The values below come from patent US20240285614A1, “PHENOL RIBONUCLEOTIDE REDUCTASE (RNR) INHIBITORS AND USES THEREOF” (Boundless Bio, Inc., priority 2023, published 2024).

In assay [1] the test system is pCHK1 (S345) in Colo320 DM cells. Put plainly: Alphalisa assay, detection of pCHK1 (S345) in Colo320 DM cells. The following applies: Homo sapiens, COLO 320DM, compound incubation overnight (approximately 16 hours). It counts as cell-based. The procedure: Colo320 DM cells (ATCC #CCL-220, derived from human colorectal adenocarcinoma, Dukes' type C) were seeded on a 96-well, cell culture treated assay plate at a density of 50,000 cells/well in 200 μL of RPMI-1640 media supplemented with 10% Fetal Bovine Serum and incubated at 37° C. overnight. The following day, test compound dilutions were added directly to the plated cells by a Tecan digital dispenser to a final DMSO concentration of <0.5%, and incubated at 37° C. overnight (approximately 16 hours). The following day all cull culture media was removed from the cells. 75 μL of 1× AlphaLisa lysis buffer was added to each well and plates were agitated on a shaker for 30 minutes at room temperature. The lysis of cells and detection of pCHK1 (S345) were performed with regents contained within the AlphaLisa Sure Fire assay kit (Perkin Elmer #ALSU-PCHK1-A) according to the manufacturer's instructions. 10 μL of each lysate was then transferred to a white, 384-well assay plate (Perkin Elmer #6008280), 5 μL of Acceptor mix was then added to each well of lysate in the white, 384-well assay plate and incubated in the dark at room temperature for 60 minutes. 5 μL of Donor mix was then added to each well of the white, 384-well assay plate in subdued light and incubated at room temperature for 60 minutes. Plates were read on an Alpha Technology-compatible plate reader using standard AlphaLisa settings.

The next assay concerns the target T1, RNR (RNR1:RNR2 1:1) (Homo sapiens, UniProt P23921+P31350).
T1 sequence (P23921 1-792): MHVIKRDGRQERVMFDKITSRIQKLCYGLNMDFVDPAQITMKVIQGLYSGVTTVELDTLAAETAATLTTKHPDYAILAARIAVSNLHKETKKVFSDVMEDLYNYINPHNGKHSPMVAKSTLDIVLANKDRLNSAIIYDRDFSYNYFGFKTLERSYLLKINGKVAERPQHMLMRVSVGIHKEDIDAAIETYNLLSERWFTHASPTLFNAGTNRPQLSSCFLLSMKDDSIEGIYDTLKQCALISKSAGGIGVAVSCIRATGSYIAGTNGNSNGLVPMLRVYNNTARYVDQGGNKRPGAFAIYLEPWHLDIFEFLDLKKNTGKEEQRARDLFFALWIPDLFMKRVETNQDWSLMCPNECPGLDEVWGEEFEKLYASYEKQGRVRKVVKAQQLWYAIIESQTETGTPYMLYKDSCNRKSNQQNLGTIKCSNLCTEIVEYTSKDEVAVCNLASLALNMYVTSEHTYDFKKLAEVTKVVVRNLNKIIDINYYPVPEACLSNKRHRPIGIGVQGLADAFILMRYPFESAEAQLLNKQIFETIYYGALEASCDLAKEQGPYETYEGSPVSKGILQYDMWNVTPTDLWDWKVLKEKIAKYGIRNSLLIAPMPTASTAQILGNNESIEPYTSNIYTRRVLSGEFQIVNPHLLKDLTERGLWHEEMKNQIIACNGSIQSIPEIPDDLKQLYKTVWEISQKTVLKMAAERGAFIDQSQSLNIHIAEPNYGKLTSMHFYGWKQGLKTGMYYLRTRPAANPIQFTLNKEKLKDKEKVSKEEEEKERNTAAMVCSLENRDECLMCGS
T1 sequence (P31350 1-389): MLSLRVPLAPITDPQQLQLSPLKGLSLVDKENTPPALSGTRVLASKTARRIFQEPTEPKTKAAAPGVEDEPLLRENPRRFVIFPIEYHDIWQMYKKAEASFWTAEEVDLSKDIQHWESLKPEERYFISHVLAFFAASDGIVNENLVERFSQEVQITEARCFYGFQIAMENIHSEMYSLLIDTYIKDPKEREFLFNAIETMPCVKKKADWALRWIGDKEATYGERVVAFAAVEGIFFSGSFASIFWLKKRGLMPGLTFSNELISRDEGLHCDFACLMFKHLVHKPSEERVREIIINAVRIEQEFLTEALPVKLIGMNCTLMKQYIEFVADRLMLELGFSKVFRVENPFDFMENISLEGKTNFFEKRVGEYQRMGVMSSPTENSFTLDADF
Put plainly: RNR enzyme activity, rapid-fire mass spectrometry (RF/MS) assay. The following applies: RNR 50 nM, 1:1 (RNR1:RNR2); CDP 5 μM; ATP 1 mM; 37° C., 45 min; compounds screened up to 50 μM. It counts as biochemical. The procedure: A rapid-fire mass spectrometry (RF/MS) assay was used to assess RNR enzyme activity using a 384 well plate and a robotic platform.
The plate layout included two validated reference compounds (Triapine (3-AP) and Hydroxyurea (HU)): • A dose response in duplicate, top concentration: 5 μM (3-AP) and 250 μM (HU), semi-log • dilutions. • Spike wells in triplicate randomly spotted at four concentrations: • 250 μM, 100 μM, 30 μM and 2 μM for HU • 5 μM, 2 μM, 0.6 μM and 0.04 μM for 3-AP
First, the multidrop pipes were saturated for 30 minutes with enzymatic solution. Then 30 μL of Stop solution was distributed in column 24. Next, 15 μL of enzyme was distributed in column 1 to 24. Next, a pre-incubation step of 15 minutes at room temperature occurred, followed by distribution of 15 μL of substrate solution (column 1 to 24). Next, the plate was incubated for 45 minutes at 37° C. 30 μL of Stop solution was distributed to columns 1 to 23.
The final parameters for the enzyme reactions were: • Incubation: 37° C., 45 min • [CDP]: 5 μM: [ATP]: 1 mM; [NADPH]: No • [RNR]final: 50 nM with 1:1 (RNR1:RNR2) ratio • Final volume: 30 μL • Stop solution: 6% HCOOH containing 2 μM of 15

As a reminder, the IC50 is the midpoint of a concentration-inhibition curve. A high value points to weaker potency in that assay. For the compound `CN(c1ccc(O)cc1)C1CN(S(=O)(=O)c2ccc3cc[nH]c3c2)C2(CC2)C1` (racemic) [compound 38, rac-(R)-4-((4-((1H-indol-6-yl)sulfonyl)-4-azaspiro[2.4]heptan-6-yl)(methyl)amino)phenol], the IC50 in assay [1] was 1 to 5 µM; at RNR (RNR1:RNR2 1:1), no more than 0.05 µM.
Consider `CN(C1CCN(c2ccc(O)cc2)CC1)S(=O)(=O)c1ccc2cc[nH]c2c1` [compound 12, N-(1-(4-hydroxyphenyl)piperidin-4-yl)-N-methyl-1H-indole-6-sulfonamide], for which the IC50 in assay [1] is 5 to 10 µM; against RNR (RNR1:RNR2 1:1) it was no more than 0.05 µM.
In the case of `CN(c1ccc(O)cc1)C1CCN(S(=O)(=O)c2ccc3cc[nH]c3c2)CC1` [compound 15, 4-((1-((1H-indol-6-yl)sulfonyl)piperidin-4-yl)(methyl)amino)phenol], the IC50 in assay [1] was in the range of 1 to 5 µM; against RNR (RNR1:RNR2 1:1), 0.05 to 0.1 µM.
On the same counts, the results for `O=S(=O)(c1ccc2cc[nH]c2c1)N1C[C@H]2COC[C@@H](C1)N2c1ccc(O)cc1` [compound 17, 4-((1R,5S)-7-((1H-indol-6-yl)sulfonyl)-3-oxa-7,9-diazabicyclo[3.3.1]nonan-9-yl)phenol] are no more than 1 µM and no more than 0.05 µM.
With `Cn1ccc2ccc(S(=O)(=O)N3CCC4(CCN(c5ccc(O)cc5)CC4)C3)cc21` [compound 41, 4-(2-((1-methyl-1H-indol-6-yl)sulfonyl)-2,8-diazaspiro[4.5]decan-8-yl)phenol], the IC50 in assay [1] was in the range of 10 to 50 µM; against RNR (RNR1:RNR2 1:1) it was 0.1 to 0.5 µM.
In the case of `CN(c1ccc(O)cc1)C1CN(S(=O)(=O)c2cc3[nH]cc(Cl)c3cc2F)C1` [compound 22, 4-((1-((3-chloro-5-fluoro-1H-indol-6-yl)sulfonyl)azetidin-3-yl)(methyl)amino)phenol], the IC50 in assay [1] is 1 to 5 µM; on RNR (RNR1:RNR2 1:1) it was no more than 0.05 µM.
